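Where inhibition never reached the appropriate level, the endpoint shown equals the highest concentration tested. Otherwise, values were interpolated linearly from a five-concentration, 48-hour dose response in 96-well plates. GI50 is the concentration that inhibits growth by half. TGI marks complete inhibition of growth.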
How the values were obtained:
Test in all cases: NCI anticancer screen, dose series, 48 h
NCI-H226 lung = tested on: NCI-H226 lung
NCI-H23 lung = tested on: NCI-H23 lung
NCI-H460 lung = tested on: NCI-H460 lung
NCI-H522 lung = tested on: NCI-H522 lung
OVCAR-3 ovarian = tested on: OVCAR-3 ovarian
OVCAR-4 ovarian = tested on: OVCAR-4 ovarian
OVCAR-5 ovarian = tested on: OVCAR-5 ovarian
OVCAR-8 ovarian = tested on: OVCAR-8 ovarian
PC-3 prostate = tested on: PC-3 prostate
RXF 393 renal = tested on: RXF 393 renal
SF-268 CNS = tested on: SF-268 CNS
SF-295 CNS = tested on: SF-295 CNS
SF-539 CNS = tested on: SF-539 CNS
SK-MEL-2 melanoma = tested on: SK-MEL-2 melanoma
SK-MEL-28 melanoma = tested on: SK-MEL-28 melanoma
SK-MEL-5 melanoma = tested on: SK-MEL-5 melanoma
SK-OV-3 ovarian = tested on: SK-OV-3 ovarian
SN12C renal = tested on: SN12C renal
SNB-19 CNS = tested on: SNB-19 CNS
SNB-75 CNS = tested on: SNB-75 CNS
SR leukemia = tested on: SR leukemia
SW-620 colon = tested on: SW-620 colon
T-47D breast = tested on: T-47D breast
TK-10 renal = tested on: TK-10 renal
U251 CNS = tested on: U251 CNS
UACC-257 melanoma = tested on: UACC-257 melanoma
UACC-62 melanoma = tested on: UACC-62 melanoma
UO-31 renal = tested on: UO-31 renal

`O=C(/C=C/c1ccccc1)c1nc2ccccc2n1Cc1ccc(Br)cc1` showed a GI50 (NCI-H226 lung) of 3.8 µM, a TGI (NCI-H226 lung) of 15.9 µM and a GI50 (NCI-H23 lung) of 2.01 µM. The TGI (NCI-H23 lung) was 4.29 µM, the GI50 (NCI-H460 lung) was 1.8 µM and the TGI (NCI-H460 lung) was 3.64 µM. The GI50 (NCI-H522 lung) was 1.84 µM, the TGI (NCI-H522 lung) was 4.04 µM and the GI50 (OVCAR-3 ovarian) was 2.28 µM. The TGI (OVCAR-3 ovarian) was 5.56 µM, the GI50 (OVCAR-4 ovarian) was 8.7 µM and the TGI (OVCAR-4 ovarian) was 81.5 µM. For the same molecule, the GI50 (OVCAR-5 ovarian) was 2.2 µM, the TGI (OVCAR-5 ovarian) was 4.54 µM and the GI50 (OVCAR-8 ovarian) was 2.84 µM. For the same molecule, the TGI (OVCAR-8 ovarian) was 8.8 µM, the GI50 (PC-3 prostate) was 3.14 µM and the TGI (PC-3 prostate) was 9.31 µM. The GI50 (RXF 393 renal) was 1.51 µM, the TGI (RXF 393 renal) was 2.84 µM and the GI50 (SF-268 CNS) was 6.92 µM. For the same molecule, the TGI (SF-268 CNS) was > 100 µM, the GI50 (SF-295 CNS) was 2.22 µM and the TGI (SF-295 CNS) was 5.25 µM. For the same molecule, the GI50 (SF-539 CNS) was 1.86 µM, the TGI (SF-539 CNS) was 3.54 µM and the GI50 (SK-MEL-2 melanoma) was 2.23 µM. For the same molecule, the TGI (SK-MEL-2 melanoma) was 5.08 µM, the GI50 (SK-MEL-28 melanoma) was 1.84 µM and the TGI (SK-MEL-28 melanoma) was 3.74 µM. The GI50 (SK-MEL-5 melanoma) was 2.44 µM, the TGI (SK-MEL-5 melanoma) was 6.95 µM and the GI50 (SK-OV-3 ovarian) was 13.2 µM. It also gave a TGI (SK-OV-3 ovarian) of 57.6 µM, a GI50 (SN12C renal) of 3.46 µM and a TGI (SN12C renal) of 12.4 µM. For the same molecule, the GI50 (SNB-19 CNS) was 1.81 µM, the TGI (SNB-19 CNS) was 3.64 µM and the GI50 (SNB-75 CNS) was 3.83 µM. For the same molecule, the TGI (SNB-75 CNS) was 22.1 µM, the GI50 (SR leukemia) was 1.97 µM and the TGI (SR leukemia) was 6.01 µM. For the same molecule, the GI50 (SW-620 colon) was 2 µM, the TGI (SW-620 colon) was 4.09 µM and the GI50 (T-47D breast) was 2.36 µM. For the same molecule, the TGI (T-47D breast) was 10.2 µM, the GI50 (TK-10 renal) was 2.57 µM and the TGI (TK-10 renal) was 7.63 µM. It also gave a GI50 (U251 CNS) of 1.65 µM, a TGI (U251 CNS) of 3.2 µM and a GI50 (UACC-257 melanoma) of 3.12 µM. It also gave a TGI (UACC-257 melanoma) of 11.9 µM, a GI50 (UACC-62 melanoma) of 1.85 µM and a TGI (UACC-62 melanoma) of 4.68 µM. It also gave a GI50 (UO-31 renal) of 1.46 µM and a TGI (UO-31 renal) of 2.97 µM.

— PubChem BioAssay (NCI)
